Results from ChEMBL document CHEMBL5126520, “Recent research results have converted gp120 binders to a therapeutic option for the treatment of HIV-1 infection. A medicinal chemistry point of view” (Eur J Med Chem, 2022).
Starred links: 1 amine or outer side, 2 acyl side, 3 side chain; linkers in the order of their positions; H or OH if unused. Positions of bridges follow the written chain, without caps; N, C: chain ends. Non-standard residues stand in square brackets, D forms with d. Residues, ends and D or L forms follow the SMILES beside them. X1 = O=C([C@@H]1CC(n2cc(-c3ccc(-c4cccs4)cc3)nn2)CN1[*:1])[*:2]

What was measured:
[1] = tested on: Human immunodeficiency virus 1; assay: Antiviral activity against HIV-1 Bal(R5) infected in human CEMx174 5.25M7 cells assessed as reduction in p24 antigen level preincubated for 30 mins followed by infection with cells and measured after 3 to 4 days by ELISA; type: functional, organism-based; conditions: Human immunodeficiency virus 1, Bal(R5)
[2] = tested on: Human immunodeficiency virus 1; assay: Antiviral activity against HIV-1 IIIB(X4) infected in human MT2 cells assessed as reduction in p24 antigen level preincubated for 30 mins followed by infection with cells and measured after 3 to 4 days by ELISA; type: functional, organism-based; conditions: Human immunodeficiency virus 1, IIIB(X4)
[3] = Selectivity index, ratio of CC50 for cytotoxicity against human MT2 cells to EC50 for antiviral activity against HIV-1 IIIB infected in human MT2 cells; type: toxicity, cell-based; conditions: read-out: Ratio CC50/EC50
[4] = tested on: Human immunodeficiency virus 1; assay: Antiviral activity against HIV-1 pseudotyped virus expressing HXB-2 Env proteins infected in human TZM-bl cells assessed as inhibition of viral entry preincubated for 30 mins followed by infection with cells and measured after 3 days by luciferase based analysis; type: functional, organism-based; conditions: Human immunodeficiency virus 1, TZM-bl
[5] = Selectivity index, ratio of CC50 for Cytotoxicity against human TZM-bl cells to EC50 for antiviral activity against HIV-1 pseudotyped virus expressing HXB-2 Env proteins infected in human TZM-bl cells; type: toxicity, cell-based; conditions: read-out: Ratio CC50/EC50
[6] = Cytotoxicity against human MT2 cells assessed as reduction in cell viability incubated for 4 days by XTT assay; type: toxicity, cell-based; conditions: time 4 day
[7] = tested on: Human immunodeficiency virus 1; assay: Antiviral activity against HIV-1 IIIB infected in human MT2 cells assessed as reduction in p24 antigen level incubated for 1 hr by ELISA; type: functional, organism-based; conditions: Human immunodeficiency virus 1, IIIB, MT2, 1 h
[8] = tested on: Human immunodeficiency virus 1; assay: Antiviral activity against laboratory-adapted HIV-1 NL4-3 infected in human TZM-bl cells incubated for 2 days by luciferase based analysis; type: functional, organism-based; conditions: Human immunodeficiency virus 1, NL4-3, TZM-bl, 48 h
[9] = tested on: Human immunodeficiency virus 1; assay: Antiviral activity against HIV-1 CH58TF infected in human TZM-bl cells assessed as neutralization viral infection pretreated for 1 hr followed by infection with cells and measured after 48 hrs by luciferase assay; type: functional, organism-based; conditions: Human immunodeficiency virus 1, CH58TF
[10] = tested on: Human immunodeficiency virus 1; assay: Antiviral activity against HIV-1 JR-FL; type: functional, organism-based; conditions: Human immunodeficiency virus 1, JR-FL
[11] = tested on: Human immunodeficiency virus 1; assay: Antiviral activity against HIV-1 YU-2 assessed as inhibition of viral entry; type: functional, organism-based; conditions: Human immunodeficiency virus 1, YU-2
[12] = tested on: Human immunodeficiency virus 1; assay: Antiviral activity against HIV-1 IIIB infected in human MT2 cells assessed as inhibition of p24 production preincubated for 30 mins followed by infection with cells and measured after 4 days by ELISA; type: functional, organism-based; conditions: Human immunodeficiency virus 1, IIIB
[13] = Cytotoxicity against human MT2 cells assessed as reduction in cell viability incubated for 4 days by MTS assay; type: toxicity, cell-based; conditions: time 4 day
[14] = Cytotoxicity against human TZM-bl cells assessed as reduction in cell viability incubated for 3 days by MTS assay; type: toxicity, cell-based; conditions: time 3 day
[15] = Cytotoxicity against human CEMx174 5.25M7 cells assessed as reduction in cell viability incubated for 48 hrs by CCK-8 assay; type: toxicity, cell-based
[16] = Cytotoxicity against human MT2 cells assessed as reduction in cell viability incubated for 48 hrs by CCK-8 assay; type: toxicity, cell-based
[17] = tested on: Human immunodeficiency virus 1; assay: Antiviral activity against HIV-1 Bal(R5) infected in human CEMx174 5.25M7 cells assessed as inactivation of HIV-1 free virions by measuring p24 antigen level preincubated for 1 hr followed by infection with cells and measured after 3 to 4 days by ELISA; type: functional, organism-based; conditions: Human immunodeficiency virus 1, Bal(R5)
[18] = tested on: Human immunodeficiency virus 1; assay: Antiviral activity against HIV-1 IIIB(X4) infected in human CEMx174 5.25M7 cells assessed as inactivation of HIV-1 free virions by measuring p24 antigen level preincubated for 1 hr followed by infection with cells and measured after 3 to 4 days by ELISA; type: functional, organism-based; conditions: Human immunodeficiency virus 1, IIIB(X4)
[19] = molecular target: Envelope glycoprotein gp160 (Human immunodeficiency virus 1, UniProt Q6QLK5); assay: Inhibition of HIV1 gp120 interaction with CD4 pretreated for 1 hr followed by TMB substrate addition and measured after 10 mins by ELISA
Sequence of Envelope glycoprotein gp160 (Q6QLK5 whole entry): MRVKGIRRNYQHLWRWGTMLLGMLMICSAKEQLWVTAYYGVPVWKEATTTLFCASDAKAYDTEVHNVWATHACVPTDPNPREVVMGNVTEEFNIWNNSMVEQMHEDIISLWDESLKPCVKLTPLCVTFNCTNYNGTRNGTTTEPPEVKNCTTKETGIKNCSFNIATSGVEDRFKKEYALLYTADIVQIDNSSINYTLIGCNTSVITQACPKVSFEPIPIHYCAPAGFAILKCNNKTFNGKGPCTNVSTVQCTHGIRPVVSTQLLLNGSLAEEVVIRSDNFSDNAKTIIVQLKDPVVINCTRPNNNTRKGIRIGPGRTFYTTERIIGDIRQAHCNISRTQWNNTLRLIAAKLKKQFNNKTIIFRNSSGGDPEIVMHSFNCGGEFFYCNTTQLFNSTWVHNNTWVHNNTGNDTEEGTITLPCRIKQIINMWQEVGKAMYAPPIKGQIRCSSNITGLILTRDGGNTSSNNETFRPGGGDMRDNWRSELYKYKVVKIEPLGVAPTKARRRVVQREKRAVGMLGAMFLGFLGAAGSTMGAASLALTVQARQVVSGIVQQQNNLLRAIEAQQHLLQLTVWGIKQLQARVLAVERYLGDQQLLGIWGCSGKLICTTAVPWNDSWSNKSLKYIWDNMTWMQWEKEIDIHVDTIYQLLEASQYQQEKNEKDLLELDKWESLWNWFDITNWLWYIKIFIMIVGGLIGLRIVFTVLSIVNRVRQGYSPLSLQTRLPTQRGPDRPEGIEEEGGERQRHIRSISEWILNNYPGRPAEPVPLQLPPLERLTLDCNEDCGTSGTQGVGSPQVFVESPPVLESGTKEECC

[20] = Cytotoxicity against HOS.T4.R5 cells assessed as reduction in cell viability incubated for 24 hrs by WST-1 assay; type: toxicity, cell-based; conditions: human
[21] = tested on: Human immunodeficiency virus 1; assay: Antiviral activity against HIV-1 Bal.01 infected in HOS.T4.R5 cells preincubated for 45 mins followed by infection with cells and measured 24 hrs post infection by luminescence based analysis; type: functional, organism-based; conditions: Human immunodeficiency virus 1, Bal.01, HOS.T4.R5

Which IC50 [1] does the source give for `CC1(C)CC(NC(=O)C(=O)Nc2ccc(Cl)c(F)c2)CC(C)(C)N1` here?
The IC50 was 830 nM.

What about the IC50 [2] of the same molecule?
Its IC50 is 830 nM.

With `CC1(C)CC(NC(=O)C(=O)Nc2ccc(Cl)cc2)CC(C)(C)N1` as the molecule, how does the selectivity ratio [3] read?
Its selectivity ratio is over 43.

And the EC50 [4]?
The EC50 was 6900 nM.

And the selectivity ratio [5]?
Its selectivity ratio is 8.7.

And the CC50 at 96 h [6]?
Its CC50 at 96 h is over 280000 nM.

What about the EC50 [7] of the same molecule?
Its EC50 is 6500 nM.

With `COc1ccnc2[nH]cc(C(=O)C(=O)N3CCN(C(=O)c4ccccc4)C[C@H]3C)c12` as the molecule, how does the EC50 [8] read?
Its EC50 is 2200 nM.

Which EC50 [9] does the source give for `NCCNC(=O)N1CCC[C@H](C(=O)Nc2ccc(Cl)c(F)c2)C1` here?
The EC50 was 7000 nM.

For `CCOC(=O)N1CCC[C@H](C(=O)Nc2ccc(Cl)c(F)c2)C1`, which EC50 [10] is on record?
The EC50 was 18000 nM.

Which EC50 [11] does the source give for `CNCc1ccc2c(c1)[C@H](NC(=O)C(=O)Nc1ccc(Cl)c(F)c1)[C@@H](CNC(=N)N)C2` here?
Its EC50 is 1600 nM.

Which EC50 [9] does the source give for `CN(Cc1ccc2c(c1)[C@H](NC(=O)C(=O)Nc1ccc(Cl)c(F)c1)[C@@H](CNC(=N)N)C2)C(=N)N` here?
The EC50 was 110 nM.

And the EC50 [11]?
Its EC50 is 1300 nM.

Which EC50 [10] does the source give for `CNCc1ccc2c(c1)[C@@H](CC[C@@H](O)CO)[C@H](CNC(=N)N)[C@H]2NC(=O)C(=O)Nc1ccc(Cl)c(F)c1` here?
The EC50 was 22000 nM.

Which EC50 [8] does the source give for `COc1cnc(-c2csc(CN(C)CCCN(C)C)n2)c2[nH]cc(C(=O)C(=O)N3CCC([C@@H](C#N)c4ccccc4)CC3)c12` here?
The EC50 was 20 nM.

For `O=C(O)c1cc(-c2ccc(/C=C3\SC(=S)N(CCc4ccc(O)cc4)C3=O)o2)ccc1Cl`, which IC50 [1] is on record?
Its IC50 is 830 nM.

What about the IC50 [2] of the same molecule?
Its IC50 is 830 nM.

For `Cc1nc(C(CN)NC(=O)c2ccc(-c3ccc4c(c3)OCO4)[nH]2)sc1CO` (stereo unspecified), which selectivity ratio [3] is on record?
Its selectivity ratio is 51.

What about the EC50 [4] of the same molecule?
Its EC50 is 2300 nM.

And the EC50 [12]?
Its EC50 is 3800 nM.

And the selectivity ratio [5]?
The selectivity ratio was 63.

And the CC50 at 96 h [13]?
The CC50 at 96 h was 193000 nM.

What about the CC50 at 72 h [14] of the same molecule?
The CC50 at 72 h was 146000 nM.

What does the source list for `CC1(C)CC(NC(=O)C(=O)Nc2ccc(Cl)c(F)c2)CC(C)(C)N1C(=O)COc1ccc(CCN2C(=O)/C(=C/c3ccc(-c4ccc(Cl)c(C(=O)O)c4)o3)SC2=S)cc1`?
CC50 at 48 h [15]: 18000 nM; CC50 at 48 h [16]: 29000 nM; IC50 [17]: 660 nM; IC50 [18]: 710 nM

With `COc1ccnc2[nH]cc(C(=O)C(=O)N3CCN(C(=O)c4ccccc4)CC3)c12` as the molecule, how does the IC50 [19] read?
The IC50 was 1.5 nM.

With `CC[C@H](C)[C@@H]1NC(=O)[C@H](CC(N)=O)NC(=O)[C@@H](N)CC(=O)NCCCC[C@@H](C(N)=O)NC(=O)[C@H](Cc2c[nH]c3ccccc23)NC(=O)[C@@H]2CC(n3cc(-c4ccc(-c5cccs5)cc4)nn3)CN2C1=O` (stereo partly specified) (H-DNI[X1]WK-NH2; lactam 1-6) as the molecule, how does the CC50 at 24 h [20] read?
The CC50 at 24 h was 100000 nM.

And the EC50 [21]?
Its EC50 is 105 nM.

With `CCOC(=O)N1CCCC(C(=O)Nc2ccc(Cl)c(F)c2)C1` (racemic) as the molecule, how does the EC50 [10] read?
Its EC50 is 8300 nM.
